Consider 15 compounds from patent US7897602B2, “Indolinone compounds as kinase inhibitors” (Development Center for Biotechnology, priority 2009, dated 2011).

What all share (assay type): biochemical
The target in one experiment is T1, VEGFR2 kinase (Homo sapiens, UniProt P35968).
T1 construct: recombinant N-terminal 6×His-tagged VEGFR2 kinase domain construct expressed by baculovirus; 6xHis (N); made in house
Put plainly: VEGFR2 kinase assay (33P incorporation into Poly(Glu-Tyr)). The note with it: 500 nM test compound; read-out: Inhibition at 500 nM (%) VEGFr-2. As to the method:
Inhibition of VEGFR2 kinase activity by compounds disclosed herein was quantified by measuring the amount of [^33P] incorporated into the substrate in the presence of a test compound. Specifically, a reaction mixture with a final volume of 25 μL and containing 6.25 ng of VEGFR2 kinase (obtained by purifying recombinant N-terminal 6×His-tagged VEGFR2 kinase domain construct expressed by baculovirus), 5 μg of substrate (Poly (Glu-Tyr, 4:1, Sigma)), kinase reaction buffer (20 mM MOPS pH 7.0, 1 mM EDTA, 5% glycerol, 0.01% Brij-35, 0.1% β-mercaptoethanol, 1 mg/mL BSA, 100 μM ATP, 0.1 μCi per well [^33P]-γ-ATP (2,500-3,000 Ci/mmol), and 500 nM test compound (final concentration of DMSO was 4%) or 4% DMSO alone (as the control sample), was incubated at 30° C. for 30 minutes. The reaction was then stopped by adding 5 μL of 3% phosphoric acid solution. The resultant solution was transferred to and harvested by a filter plate (UniFilter-96 GF/B, PerkinElmer). The filter plate was then washed 20 times with d.d. H2O for 5 min followed by the addition of 30 μL of MicroScint™-20 Cocktail (PerkinElmer). After the plate was sealed, the retained radioactivity on the filter was counted using a TopCount scintillation detector (PerkinElmer). The percentage of inhibition rate of the test compound was calculated by dividing the retained radioactivity of the test sample with the retained radioactivity of the control sample and shown in Table 3.

The target of another experiment is T2, c-Met kinase (Homo sapiens, UniProt P08581).
T2 construct: recombinant N-terminal 6×His-tagged c-Met kinase domain construct expressed from baculovirus; 6xHis (N); made in house
Kind of experiment: c-Met kinase assay (33P incorporation into Poly(Glu-Tyr)). Conditions: 500 nM test compound. In a few lines:
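Recombinant N-terminal 6×His-tagged c-Met kinase domain (baculovirus-expressed, 5 ng) acted on Poly(Glu-Tyr) 4:1 with 100 μM ATP plus [33P]-γ-ATP in MOPS pH 7.0 buffer, 30 min at 30° C. Compound was at 500 nM. Filter-retained radioactivity was compared with the DMSO control to give percent inhibition.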

For the next experiment, the target named is T3, Aurora B kinase (Homo sapiens, UniProt Q96GD4).
T3 construct: purchased Cell signaling
Put plainly: Aurora B kinase assay ([γ-33P]ATP, CHOCKtide substrate). In a few lines:
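Recombinant Aurora A (1 ng) or Aurora B (2.5 ng) incubated with test compound, CHOCKtide (1 μg) and [γ-33P]ATP/ATP at 10 μM (Aurora A) or 40 μM (Aurora B), 30 min at 33 °C. Stopped with phosphoric acid; filter-bound 33P counted; IC50 = half-maximal inhibition.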

The target of the next experiment is T4, PDGFR-β kinase (Homo sapiens, UniProt P09619).
T4 construct: recombinant N-terminal 6×His-tagged PDGFR-β kinase domain construct expressed by baculovirus; 6xHis (N); made in house
Kind of experiment: PDGFR-β kinase assay (33P incorporation into Poly(Glu-Tyr)). The note with it: 500 nM test compound. As to the method: Inhibition of PDGFR-β kinase activity by compounds disclosed herein was quantified by measuring the amount of [^33P] incorporated into the substrate in the presence of a test compound. Briefly, a reaction mixture of 25 μL final volume containing 55 ng of PDGFR-β kinase (obtained by purifying recombinant N-terminal 6×His-tagged PDGFR-β kinase domain construct expressed by baculovirus), 2.5 μg of the substrate (Poly (Glu-Tyr, 4:1, Sigma)), kinase reaction buffer (20 mM MOPS pH 7.0, 1 mM EDTA, 5% glycerol, 0.01% Brij-35, 0.1% β-mercaptoethanol, 1 mg/mL BSA, 2 mM MnCl2, 30 μM ATP, 0.1 μCi per well [^33P]-γ-ATP (2,500-3,000 Ci/mmol)), and a test compound (500 nM, diluted with 4% DMSO) or DMSO (as the control) was incubated at 30° C. for 30 minutes. The reaction was stopped by adding 5 μL of 3% phosphoric acid solution. The resultant reaction solution was then harvested onto a filter plate (UniFilter-96 GF/B, PerkinElmer), washed 20 times for 5 min with d.d. H2O, and followed by the addition of 30 μL of MicroScint™-20 Cocktail (PerkinElmer). The plate was then sealed and counted using a TopCount scintillation detector (PerkinElmer). The percentage of inhibition rate of the test compound was calculated by dividing the retained radioactivity of the test sample with the retained radioactivity of the control sample and shown in Table 3.

T2 sequence (P08581 1078-1345 limits assumed): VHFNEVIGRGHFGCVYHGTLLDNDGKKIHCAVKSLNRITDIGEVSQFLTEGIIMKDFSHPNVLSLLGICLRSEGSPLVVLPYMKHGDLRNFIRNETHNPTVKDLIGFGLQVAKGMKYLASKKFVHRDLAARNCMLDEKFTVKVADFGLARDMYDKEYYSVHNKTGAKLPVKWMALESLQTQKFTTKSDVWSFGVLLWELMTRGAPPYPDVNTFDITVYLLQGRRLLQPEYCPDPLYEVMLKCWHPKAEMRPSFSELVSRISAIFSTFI
T1 sequence (P35968 834-1162 limits assumed): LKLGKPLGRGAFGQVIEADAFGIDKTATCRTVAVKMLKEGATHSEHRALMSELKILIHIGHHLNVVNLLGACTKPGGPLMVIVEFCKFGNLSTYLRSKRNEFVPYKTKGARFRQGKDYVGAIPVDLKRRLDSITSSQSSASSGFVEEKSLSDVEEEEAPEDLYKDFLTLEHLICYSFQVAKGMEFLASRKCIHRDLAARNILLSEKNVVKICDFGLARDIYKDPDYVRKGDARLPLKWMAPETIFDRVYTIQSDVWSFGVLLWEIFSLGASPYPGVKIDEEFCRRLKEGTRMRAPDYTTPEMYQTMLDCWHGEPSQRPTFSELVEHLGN
T3 sequence (Q96GD4 whole entry): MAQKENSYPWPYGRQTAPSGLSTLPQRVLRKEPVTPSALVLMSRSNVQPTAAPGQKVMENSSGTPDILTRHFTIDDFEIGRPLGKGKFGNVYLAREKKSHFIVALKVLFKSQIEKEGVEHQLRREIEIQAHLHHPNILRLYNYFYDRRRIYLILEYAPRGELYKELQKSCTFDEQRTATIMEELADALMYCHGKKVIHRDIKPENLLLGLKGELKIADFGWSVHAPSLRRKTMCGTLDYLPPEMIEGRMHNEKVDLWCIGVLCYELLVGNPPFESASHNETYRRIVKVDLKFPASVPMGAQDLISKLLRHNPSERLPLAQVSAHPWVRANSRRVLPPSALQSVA
T4 sequence (P09619 600-962 limits assumed): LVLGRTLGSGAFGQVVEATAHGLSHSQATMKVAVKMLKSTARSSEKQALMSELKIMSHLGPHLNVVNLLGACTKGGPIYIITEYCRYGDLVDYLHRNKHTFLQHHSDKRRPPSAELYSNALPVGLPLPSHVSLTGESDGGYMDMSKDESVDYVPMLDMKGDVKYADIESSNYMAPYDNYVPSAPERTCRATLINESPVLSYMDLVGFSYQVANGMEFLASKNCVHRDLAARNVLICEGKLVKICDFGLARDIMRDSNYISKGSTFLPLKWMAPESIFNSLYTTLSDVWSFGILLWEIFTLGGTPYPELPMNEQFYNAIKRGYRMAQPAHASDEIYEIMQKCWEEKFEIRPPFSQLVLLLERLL

By inhibition is commonly meant the change of the read-out against control, counted positive when it falls. Usually IC50 stands for the point on the concentration scale where inhibition reaches its midpoint. Lower therefore signals greater potency in that assay. In the case of `CCOC(=O)CCc1c(/C=C2\C(=O)Nc3ccccc32)[nH]c2c1C(=O)CCC2` [DCB-70049, (Z)-3-((3-(3-ethoxy-3-oxopropyl)-4-oxo-4,5,6,7-tetrahydro-1H-indol-2-yl)methylene)indolin-2-one], the values for the inhibition at 0.5 µM at VEGFR2 kinase, on c-Met kinase and on PDGFR-β kinase were 79.7%, 26% and 54%, respectively. Further, the IC50 on Aurora B kinase was found to be 5.92 µM. The inhibition at 1 µM on Aurora B kinase (1.0 μM test compound) was found to be 2.3%.

As for `O=C(O)CCc1c(/C=C2\C(=O)Nc3ccccc32)[nH]c2c1C(=O)CCC2` [DCB-70052, (Z)-3-((3-carboxyethyl-4-oxo-4,5,6,7-tetrahydro-1H-indol-2-yl)methylene)indolin-2-one], the inhibition at 0.5 µM was 85% on VEGFR2 kinase, 14.3% against c-Met kinase and 54.8% at PDGFR-β kinase. Also, the inhibition at 1 µM at Aurora B kinase (1.0 μM test compound) stood at 13%.

A word on the Inhibition: it is how much of the control response was suppressed. Low values mean a response near the control, high ones a response far below the control. Take `CCOC(=O)CCc1c(/C=C2\C(=O)Nc3ccc(F)cc32)[nH]c2c1C(=O)CCC2` [DCB-70053, (Z)-5-fluoro-3-((3-(3-ethoxy-3-oxopropyl)-4-oxo-4,5,6,7-tetrahydro-1H-indol-2-yl)methylene)indolin-2-one]: the inhibition at 0.5 µM was 85.2% at VEGFR2 kinase and 82.3% at PDGFR-β kinase. The “Inhibition at 500 nM (%) c-Met” value on c-Met kinase (0.5 µM) was 17.4%. Besides, the “Aurora B kinase assay Inhibition at 1.0 μM (%)” value at Aurora B kinase (1.0 μM test compound, 1 µM) stood at 3.5%.

Regarding `O=C(O)CCc1c(/C=C2\C(=O)Nc3ccc(F)cc32)[nH]c2c1C(=O)CCC2` [DCB-70055, (Z)-5-fluoro-3-((3-carboxyethyl-4-oxo-4,5,6,7-tetrahydro-1H-indol-2-yl)methylene)indolin-2-one], the figures for the inhibition at 0.5 µM on VEGFR2 kinase, against c-Met kinase and against PDGFR-β kinase were 91.2%, 21.7% and 83.5%, respectively. Besides, on Aurora B kinase (1.0 μM test compound), the inhibition at 1 µM is 11.6%.

Regarding `CCOC(=O)CCc1c(/C=C2\C(=O)Nc3ccc(Br)cc32)[nH]c2c1C(=O)CCC2` [DCB-70056, (Z)-5-bromo-3-((3-(3-ethoxy-3-oxopropyl)-4-oxo-4,5,6,7-tetrahydro-1H-indol-2-yl)methylene)indolin-2-one], the figures for the inhibition at 0.5 µM on VEGFR2 kinase, on c-Met kinase and at PDGFR-β kinase were 89.6%, 30.9% and 84.1%, respectively. Moreover, the inhibition at 1 µM on Aurora B kinase (1.0 μM test compound) came out at 7.2%.

Regarding `O=C(O)CCc1c(/C=C2\C(=O)Nc3ccc(Br)cc32)[nH]c2c1C(=O)CCC2` [DCB-70057, (Z)-5-bromo-3-((3-carboxyethyl-4-oxo-4,5,6,7-tetrahydro-1H-indol-2-yl)methylene)indolin-2-one], the inhibition at 0.5 µM on VEGFR2 kinase was determined as 94.9%; at c-Met kinase, 19.3%; at PDGFR-β kinase it was 89.3%. Besides, the inhibition at 1 µM at Aurora B kinase (1.0 μM test compound) is 6.8%.

Take `CCOC(=O)CCc1c(/C=C2\C(=O)Nc3ccc(-c4ccc(O)c(OC)c4)cc32)[nH]c2c1C(=O)CCC2` [DCB-70058, (Z)-5-(4-hydroxyl-3-methoxyphenyl)-3-((3-(3-ethoxy-3-oxopropyl)-4-oxo-4,5,6,7-tetrahydro-1H-indol-2-yl)methylene)indolin-2-one]: the inhibition at 0.5 µM amounted to 46.3% at VEGFR2 kinase, 9.7% at c-Met kinase and 30.5% against PDGFR-β kinase. In addition, on Aurora B kinase (1.0 μM test compound), the inhibition at 1 µM was -1%.

On to `COc1cc(-c2ccc3c(c2)/C(=C/c2[nH]c4c(c2CCC(=O)O)C(=O)CCC4)C(=O)N3)ccc1O` [DCB-70059, (Z)-5-(4-hydroxyl-3-methoxyphenyl)-3-((3-carboxyethyl-4-oxo-4,5,6,7-tetrahydro-1H-indol-2-yl)methylene)indolin-2-one], for which the inhibition at 0.5 µM at VEGFR2 kinase was 70.9%; on c-Met kinase it was 16.3%; against PDGFR-β kinase it was 38.3%. Moreover, the inhibition at 1 µM against Aurora B kinase (1.0 μM test compound) was 12.4%.

Consider `CCOC(=O)CCc1c(/C=C2\C(=O)Nc3ccc([N+](=O)[O-])cc32)[nH]c2c1C(=O)CCC2` [DCB-70062, (Z)-5-nitro-3-((3-(3-ethoxy-3-oxopropyl)-4-oxo-4,5,6,7-tetrahydro-1H-indol-2-yl)methylene)indolin-2-one], for which the inhibition at 0.5 µM on VEGFR2 kinase is 60.2%; on c-Met kinase it was 34.1%; on PDGFR-β kinase, 67.5%. Besides, the inhibition at 1 µM at Aurora B kinase (1.0 μM test compound) was -4.1%.

Take `O=C(O)CCc1c(/C=C2\C(=O)Nc3ccc([N+](=O)[O-])cc32)[nH]c2c1C(=O)CCC2` [DCB-70063, (Z)-5-nitro-3-((3-carboxyethyl-4-oxo-4,5,6,7-tetrahydro-1H-indol-2-yl)methylene)indolin-2-one]: the inhibition at 0.5 µM on VEGFR2 kinase is 82.7%; against c-Met kinase, 19.9%; against PDGFR-β kinase it was 79.7%. The inhibition at 1 µM at Aurora B kinase (1.0 μM test compound) is 3.4%.

With `CCOC(=O)CCc1c(/C=C2\C(=O)Nc3ccc(S(=O)(=O)NC)cc32)[nH]c2c1C(=O)CCC2` [DCB-70064, (Z)-5-(N-methylsulfamoyl)-3-((3-(3-ethoxy-3-oxopropyl)-4-oxo-4,5,6,7-tetrahydro-1H-indol-2-yl)methylene)indolin-2-one], the inhibition at 0.5 µM on VEGFR2 kinase was 39%; against c-Met kinase, 48.1%; against PDGFR-β kinase, 56.7%. In addition, at Aurora B kinase (1.0 μM test compound), the inhibition at 1 µM came to 22.2%.

As to `CNS(=O)(=O)c1ccc2c(c1)/C(=C/c1[nH]c3c(c1CCC(=O)O)C(=O)CCC3)C(=O)N2` [DCB-70065, (Z)-5-(N-methylsulfamoyl)-3-((3-carboxyethyl-4-oxo-4,5,6,7-tetrahydro-1H-indol-2-yl)methylene)indolin-2-one], the inhibition at 0.5 µM is 47.9% at VEGFR2 kinase, 29.1% on c-Met kinase and 17.3% on PDGFR-β kinase. The inhibition at 1 µM on Aurora B kinase (1.0 μM test compound) came to 25.6%.

For `CCOC(=O)CCc1c(/C=C2\C(=O)Nc3cc(-c4ccc(O)cc4)ccc32)[nH]c2c1C(=O)CCC2` [DCB-70066, (Z)-6-(4-hydroxyphenyl)-3-((3-(3-ethoxy-3-oxopropyl)-4-oxo-4,5,6,7-tetrahydro-1H-indol-2-yl)methylene)indolin-2-one], the inhibition at 0.5 µM amounted to 94.3% on VEGFR2 kinase, 15.2% at c-Met kinase and 85.4% against PDGFR-β kinase. The inhibition at 1 µM on Aurora B kinase (1.0 μM test compound) stood at 25.3%.

Regarding `CCOC(=O)CCc1c(/C=C2\C(=O)Nc3ccc(-c4ccc(OC)c(OC)c4)cc32)[nH]c2c1C(=O)CCC2` [DCB-70067, (Z)-5-(3,4-dimethoxyphenyl)-3-((3-(3-ethoxy-3-oxopropyl)-4-oxo-4,5,6,7-tetrahydro-1H-indol-2-yl)methylene)indolin-2-one], the inhibition at 0.5 µM was 27.2% at VEGFR2 kinase, 17% at c-Met kinase and 22% on PDGFR-β kinase. Besides, at Aurora B kinase (1.0 μM test compound), the inhibition at 1 µM was -1.3%.

As to `COc1ccc(-c2ccc3c(c2)/C(=C/c2[nH]c4c(c2CCC(=O)O)C(=O)CCC4)C(=O)N3)cc1OC` [DCB-70068, (Z)-5-(3,4-dimethoxyphenyl)-3-((3-carboxyethyl-4-oxo-4,5,6,7-tetrahydro-1H-indol-2-yl)methylene)indolin-2-one], the inhibition at 0.5 µM on VEGFR2 kinase was determined as 48.4%; against c-Met kinase, 18%; on PDGFR-β kinase it was 20.6%. For the same compound, the inhibition at 1 µM at Aurora B kinase (1.0 μM test compound) came out at 5.1%.
